According to patent US12350267B2, “Bile acid recycling inhibitors for treatment of pediatric cholestatic liver diseases” (SHIRE HUMAN GENETIC THERAPIES, INC., priority 2011, dated 2025):
One block for each compound: values may come before it.

Tests used:
plasma bile acid levels = assay: Plasma bile acid levels of ZDF rats after ascending doses of SC-435 and LUM002; format: in vivo, Male ZDF rats; settings: ZDF rats n=4; oral gavage twice a day for 2 weeks; all doses (SC-435 1, 10 or 30 mg/kg; LUM002 0.3, 1, 3, 10 or 30 mg/kg)
Method: (§1) FIG. 2. Plasma bile acid levels of ZDF rats after administration of ascending doses of SC-435 and LUM002. Male ZDF rats (n=4) were administered vehicle, SC-435 (1, 10 or 30 mg/kg) or LUM002 (0.3, 1, 3, 10 or 30 mg/kg) by oral gavage twice a day for 2 weeks. Plasma bile acid levels were determined at the end of the second week. Data are expressed as mean values±SEM.
as §1, with “Plasma” for “FIG. 2. Plasma”, “week. […]” for “week.”

[1] = tested on: fecal bile acid excretion and plasma bile acid concentrations; assay: ZDF rat study of 264W94: fecal bile acid excretion and plasma bile acid concentrations; format: in vivo, Male Zucker diabetic fatty rats (ZDF/GmiCrl-fa/fa); settings: 2 weeks
Method: Animal preparation. Male Zucker diabetic fatty rats (ZDF/GmiCrl-fa/fa) were purchased from Charles River (Raleigh, NC) and housed under controlled conditions (12:12 light-dark cycle, 24° C. and 50% relative humidity) with free access to rodent food (Purina 5008, Harlan Teklad, Indianapolis, IN). All rats arrived at seven weeks of age (±3 days). After a one-week acclimation period, rats were anesthetized with isoflurane (Abbott Laboratories, IL) and tail-vein blood samples were collected at 9 am without fasting. Blood glucose levels were measured using a glucometer (Bayer, Leverkusen, Germany). In order to ensure balanced treatment groups, ZDF rats were assigned to six treatment groups based upon baseline glucose: vehicle (0.5% HPMC, 0.1% Tween80) and five doses of 264W94 (0.001, 0.01, 0.1, 1, 10 mg/kg). All treatments were given via oral gavage twice a day and animals were followed for two weeks with blood samples collected from tail vein at the end of each week at 9 am without fasting. Fecal samples were collected for 24 hours during the second week of treatment.
Measurement of clinical chemistry parameters. Non-esterified fatty acids (NEFA), bile acids, and bile acids in fecal extraction were measured using the Olympus AU640 clinical chemistry analyzer (Beckman Coulter, Irving, TX).

[2] = tested on: Postprandial Total Serum Bile Acids; assay: Time to onset of activity of LUM001 on postprandial serum bile acids in dogs; format: in vivo, Beagle dogs; settings: dog; dose increased above ED50 level to 1 mg/kg
Method: Animal Study on the Duration of Action and Time to Onset of ASBTI Activity of a Single Oral Dose of LUM001 on Postprandial Total Serum Bile Acids in Beagle Dogs
Test Compound: LUM001—Form I
(§2) Dosage preparation and administration: LUM001 was dissolved in water at concentrations that required the administration of 0.2 ml/kg of solution. Solutions were placed into gelatin capsules, Torpac Inc., size 13 Batch 594, East Hanover NJ, and administered orally.
(§3) Dogs: Male beagle dogs were obtained from Covance Research Products, Cumberland VA or Marshall Farms USA, Inc., North Rose NY. A total of 20 dogs, 1 to 5 years old, 6.8 to 15.6 kg body weight, were used in these experiments. The dogs were conditioned to a 12 hour light/dark cycle and maintained on a feeding restriction of 1 hour per day access to food (Richman Standard Certified Canine Diet #5007, PMI Nutrition, Inc., St Louis MO) from 7 to 8 AM. They were trained to eat a special meal promptly within 20 minutes when presented (1 can. 397 g, Evanger's 100% Beef for Dogs, Evanger's Dog and Cat Food Co., Inc., Wheeling IL, mixed with 50 g of sharp cheddar cheese).
Serum Total Bile Acid (SBA) Measurement: SBA was measured by an enzymatic assay. SBA values are expressed as μg of total bile acids/ml of serum. […]

[3] = tested on: Postprandial Total Serum Bile Acids; assay: Duration of action of LUM001 on dog serum bile acids, Method 2 (dosing before feeding); format: in vivo, Beagle dogs; settings: dogs n=9, 0.05 mg/kg (2nd dose column), dosing time 0 hr, feeding time 2 hr
Method: as §2, §3
Serum Total Bile Acid (SBA) Measurement: SBA was measured by an enzymatic assay. SBA values are expressed as μg of total bile acids/ml of serum.
Experiments to Measure the Duration of Action of LUM001: In dogs a single experimental meal produces a postprandial rise in SBA that is elevated to a peak at 1 hour after feeding and constant for an additional 3 hours. Previous experiments (2) indicate that LUM001 remains active for more than 4.5 hours. […]

[4] = tested on: serum bile acids and fecal bile acids; assay: Phase 1 ascending multiple oral doses of LUM001 in healthy subjects: serum and fecal bile acids; format: in vivo; settings: healthy adult subjects; multiple oral doses qAM, 28 days
Method: A Randomized, Double-Blind, Placebo Controlled, Safety, Tolerability, Pharmacokinetic, and Pharmacodynamic Study of Ascending Multiple Oral Doses of LUM001 in Healthy Subjects
This Phase 1 study was a randomized, double-blind, placebo-controlled study of ascending multiple oral doses of LUM001 in healthy, adult subjects. This study was conducted at a single center. There were 13 LUM001 dosing panels: 10, 20, 60, 100, and 20 mg every morning (qAM) (2) (i.e., the regimen was tested a second time in the study), 5 mg every evening (qPM), 0.5, 1, 2.5, 5, 2.5 (2), 5 (2), and 0.5 to 5 mg qAM dose titration. Most of the dosing panels included subjects treated with matching placebo. […]
SBA were analyzed as part of the routine clinical analysis of the serum samples collected at each time point.
Fecal Bile Acid Analysis: Fecal samples were collected for all panels except the dose-titration panel, 2.5 (2) and 5 mg (2), on Days 9 through 14 and 23 through 28 (data shown in FIG. 4). Twenty-four hour FBA excretions were quantified by Pharmacia for Days 9 through 14 and 23 through 28. […] The weight of each 24-hour fecal collection was recorded on the CRFs. […]
An aliquot for each 24-hour fecal sample collected on Days 23 through 28 was combined, homogenized, and analyzed for bile acid species concentrations by ANAPHARM. […]

[5] = Pharmacokinetics of LUM001 in pediatric subjects (study NB-00-02-014); format: in vivo; settings: measured on day eight
Method: LUM001 has been administered to forty patients under the age of 18 years old. […] The drug was administered once-a-day (QD) in the morning for fourteen days. […] These doses are similar to those using to treat children with cholestatic diseases.

[6] = tested on: Postprandial Total Serum Bile Acids; settings: dog; previous experiments (2); cited from earlier work
[7] = ZDF rats, oral gavage twice a day

SMILES: CCCCC1(CCCC)CS(=O)(=O)c2ccc(N(C)C)cc2[C@@H](c2ccc(OCCCC[N+]34CCN(CC3)CC4)cc2)[C@H]1O.CS(=O)(=O)[O-] [SC-435, 1-[4-[4-[(4R,5R)-3,3-dibutyl-7-(dimethylamino)-2,3,4,5-tetrahydro-4-hydroxy-1,1-dioxido-1-benzothiepin-5-yl]phenoxy]butyl]4-aza-1-azoniabicyclo[2.2.2]octane methanesulfonate salt, reference compound]
Plasma bile acid levels (plasma bile acid levels): decreased

SMILES: CCCC[C@]1(CC)CS(=O)(=O)c2ccc(N(C)C)cc2[C@@H](c2cccc(NC(=O)N[C@@H]3O[C@H](COS(=O)(=O)[O-])[C@@H](O)[C@H](OCc4ccccc4)[C@H]3O)c2)[C@H]1O.[K+] [LUM002]
Plasma bile acid levels (plasma bile acid levels): decreased

SMILES: CCCC[C@]1(CC)CS(=O)(=O)c2cc(OC)c(OC)cc2[C@@H](c2ccccc2)N1 [Compound 264W94]
Fecal bile acid concentrations elevated compared to vehicle treated rats ([1]; 0.001-10 mg/kg oral gavage twice a day, maximum elevation (up to)): up to 6.5 fold
Plasma bile acid concentrations ([1]; ZDF rats, 0.001-10 mg/kg oral gavage twice a day): decreased dose-dependently
ED50 for elevation of fecal bile acid concentrations [1, 7]: 0.17 mg/kg
Fecal NEFA [1, 7]: slightly increased

Average serum drug exposure ([5]; Subject 0510, 5.0 mg QD (168.4 μg/kg)): 0,0 ng/ml
Systemic exposure / absorption by the children ([5]; patients under 18, QD in the morning): minimally absorbed
SMILES: CCCCC1(CCCC)CS(=O)(=O)c2ccc(N(C)C)cc2[C@@H](c2ccc(OCc3ccc(C[N+]45CCN(CC4)CC5)cc3)cc2)[C@H]1O [LUM001]
Onset time to significant SBA lowering versus ED50 dose [2]: did not shorten
Serum Bile Acid, Mean [3]: 1.7 µg/mL
Fecal bile acids [4]: significant increase
Serum bile acids [4]: significant reduction
Time LUM001 remains active (previous experiments) [6]: more than 4.5 hours
